Assay results: patent US20120323164A1, “PHOTODYNAMIC THERAPY WITH PHTHALOCYANINES AND RADICAL SOURCES” (Case Western Reserve University, priority 2011, published 2012)
“And” between values parts separate entries of the source, which are not always exact repeats. Equal values may be shown once.

Assays:
[1] = Photodecomposition of phthalocyanines in toluene under white light, no added radical source; details: for photostability (in words): white light, toluene
Procedure: The distance between the cuvette face and the lamp filament was 30 cm. Determination of the beam intensity at the cuvette face was made with a powermeter (Powermax, pm10, Coherent, Santa Clara, Calif.). The beam intensity was checked before each measurement.
Solutions for the photodecomposition experiments were prepared as follows. […] This assumption was justified on the basis that all of the silicon phthalocyanines studied contained simple, unsubstituted phthalocyanine rings. The extinction coefficients of the aluminum phthalocyanines were assumed to be 2.3×10^5, the extinction coefficient of AlPcOSi(CH3)2(CH2)3N(CH3)2, Pc 1.
The absorbance of the Q band of the solution, A, was determined with a spectrophotometer (Lambda 25, Perkin Elmer, Shelton, Conn.; fused silica cuvettes, 1.00 cm, 3.5 mL, Fisher Scientific). From A, ε, the cuvette path length, b, and Beer's law, the concentration of the solution, c, was determined. The solution was then diluted with toluene to a concentration of 9.2 μM. To verify that this was the concentration of the solution, its absorbance was measured again.
In a typical determination, the solution (3.00 mL) was placed in a cuvette (1.00 cm, 3.5 mL, Fisher Scientific, Pittsburgh, Pa.) and its absorbance was measured with the spectrometer (Lambda 25) before irradiation and at 2, 4, 6 and 8 h.
where A0 is the absorbance of the solution at time 0, and At is the absorbance at time t.

[2] = Photodecomposition of Al and Si phthalocyanines in toluene in the presence of squalene under white light; type: physicochemical; details: toluene ~9 μM, squalene 1:1000 mole ratio, white light 1.2 kJ/s/m^2, air
Procedure: The beam intensity was checked before each measurement.
Solutions for the photodecomposition experiments were prepared as follows.

[3] = time 0 h, toluene ~9 μM, no added alkene, white light 1.2 kJ/s/m^2
[4] = time 2 h, radiation 86 kJ/mol × 10^−6, toluene ~9 μM, no added alkene, white light 1.2 kJ/s/m^2
[5] = time 4 h, radiation 172 kJ/mol × 10^−6, toluene ~9 μM, no added alkene, white light 1.2 kJ/s/m^2
[6] = time 6 h, radiation 258 kJ/mol × 10^−6, toluene ~9 μM, no added alkene, white light 1.2 kJ/s/m^2
[7] = time 8 h, radiation 344 kJ/mol × 10^−6, toluene ~9 μM, no added alkene, white light 1.2 kJ/s/m^2
[8] = time 2 h, radiation 86 kJ/mol × 10^−6
[9] = time 4 h, radiation 172 kJ/mol × 10^−6
[10] = time 6 h, radiation 258 kJ/mol × 10^−6
[11] = time 8 h, radiation 344 kJ/mol × 10^−6

AlPcOSi(CH3)2(CH2)3N(CH3)2 [Pc 1]
decomp (%) [1, 3]: 0% | decomp (%) [1, 4]: 27% | decomp (%) [1, 5]: 39% | decomp (%) [1, 6]: 46% | decomp (%) [1, 7]: 49% | photostability (in words) ([1]; no added alkene): low photostability

CCC[Si](CCC)(CCC)O[Si]1(O[Si](CCC)(CCC)CCC)n2c3c4ccccc4c2N=C2N=C(N=c4c5ccccc5c(n41)=NC1=NC(=N3)c3ccccc31)c1ccccc12 [Pc 282, SiPc(OSiPr3)2]
decomp (%) ([2]; time 0 h): 0% | decomp (%) [2, 8]: 3% | decomp (%) [2, 9]: 4% | decomp (%) [2, 10]: 6% | decomp (%) [2, 11]: 7%

CC1=C(/C=C/C(C)=C/C=C/C(C)=C/C(=O)O[Si]2(OC(=O)/C=C(C)/C=C/C=C(C)/C=C/C3=C(C)CCCC3(C)C)n3c4c5ccccc5c3N=C3N=C(N=c5c6ccccc6c(n52)=NC2=NC(=N4)c4ccccc42)c2ccccc23)C(C)(C)CCC1 (stereo not drawn) [Pc 301, SiPc[OC(O)(CH═C(CH3)CH═CH)2C6H6(CH3)3]2]
decomp (%) [1, 3]: 0% | decomp (%) [1, 4]: 19% | decomp (%) [1, 5]: 25% | decomp (%) [1, 6]: 28% | decomp (%) [1, 7]: 32%

CC[Si](CC)(CC)O[Si]1(O[Si](CC)(CC)CC)n2c3c4ccccc4c2N=C2N=C(N=c4c5ccccc5c(n41)=NC1=NC(=N3)c3ccccc31)c1ccccc12 [Pc 281, SiPc(OSiEt3)2]
decomp (%) ([2]; time 0 h): 0% | decomp (%) [2, 8]: 5% | decomp (%) [2, 9]: 9% | decomp (%) [2, 10]: 13% | decomp (%) [2, 11]: 17%

CN(C)CCCCCC[Si](C)(C)O[Si]1(O[Si](C)(C)CCCCCCN(C)C)n2c3c4ccccc4c2N=C2N=C(N=c4c5ccccc5c(n41)=NC1=NC(=N3)c3ccccc31)c1ccccc12 [Pc 85, SiPc[OSi(CH3)2(CH2)6N(CH3)2]2]
decomp (%) [1, 3]: 0% | decomp (%) [1, 4]: 5% | decomp (%) [1, 5]: 5% | decomp (%) [1, 6]: 5% | decomp (%) [1, 7]: 5%

COCCC[Si](C)(C)O[Si]1(O[Si](C)(C)CCCOC)n2c3c4ccccc4c2N=C2N=C(N=c4c5ccccc5c(n41)=NC1=NC(=N3)c3ccccc31)c1ccccc12 [Pc 92, SiPc[OSi(CH3)2(CH2)3OCH3]2]
decomp (%) [1, 3]: 0% | decomp (%) [1, 4]: 1% | decomp (%) [1, 5]: 1% | decomp (%) [1, 6]: 1% | decomp (%) [1, 7]: 1%

C=CC[Si](C)(C)O[Si]1(O[Si](C)(C)CC=C)n2c3c4ccccc4c2N=C2N=C(N=c4c5ccccc5c(n41)=NC1=NC(=N3)c3ccccc31)c1ccccc12 [Pc 271, SiPc[OSi(CH3)2CH2CH═CH2]2]
decomp (%) [1, 3]: 0% | decomp (%) [1, 4]: 6% | decomp (%) [1, 5]: 10% | decomp (%) [1, 6]: 14% | decomp (%) [1, 7]: 16%

CN(C)CCC[Si](C)(C)O[Si]1(O)n2c3c4ccccc4c2N=C2N=C(N=c4c5ccccc5c(n41)=NC1=NC(=N3)c3ccccc31)c1ccccc12 (stereo not drawn) [Pc 4, HOSiPcOSi(CH3)2(CH2)3N(CH3)2]
decomp (%) ([2]; time 0 h): 0% | decomp (%) [2, 8]: 57% | decomp (%) [2, 9]: 81% | decomp (%) [2, 10]: 92% | decomp (%) [2, 11]: 96% | decomp (%) [1, 3]: 0% | decomp (%) [1, 4]: 11% | decomp (%) [1, 5]: 12% | decomp (%) [1, 6]: 12% | decomp (%) [1, 7]: 13%

C[SiH2]O[Si]1(O[SiH2]C)n2c3c4ccccc4c2N=C2N=C(N=c4c5ccccc5c(n41)=NC1=NC(=N3)c3ccccc31)c1ccccc12 (stereo not drawn) [Pc 283, SiPc(OSiH2Me)2]
decomp (%) ([2]; time 0 h): 0% | decomp (%) [2, 8]: 24% | decomp (%) [2, 9]: 44% | decomp (%) [2, 10]: 63% | decomp (%) [2, 11]: 77%

C[Si](C)(CCCI)O[Si]1(O)n2c3c4ccccc4c2N=C2N=C(N=c4c5ccccc5c(n41)=NC1=NC(=N3)c3ccccc31)c1ccccc12 (stereo not drawn) [Pc 58, SiPc[OSiMe2(CH2)3I](OH)]
decomp (%) ([2]; time 0 h): 0% | decomp (%) [2, 8]: 12% | decomp (%) [2, 9]: 23% | decomp (%) [2, 10]: 34% | decomp (%) [2, 11]: 44%

C[Si](C)(CCCN(c1ccccc1)c1ccccc1)O[Si]1(O[Si](C)(C)CCCN(c2ccccc2)c2ccccc2)n2c3c4ccccc4c2N=C2N=C(N=c4c5ccccc5c(n41)=NC1=NC(=N3)c3ccccc31)c1ccccc12 [Pc 159, SiPc[OSi(CH3)2(CH2)3N(C6H5)2]2]
decomp (%) [1, 3]: 0% | decomp (%) [1, 4]: 0% | decomp (%) [1, 5]: 0% | decomp (%) [1, 6]: 0% | decomp (%) [1, 7]: 1% | photostability (in words) ([1]; no added alkene): quite stable under light

CSCCC[Si](C)(C)O[Si]1(O[Si](C)(C)CCCSC)n2c3c4ccccc4c2N=C2N=C(N=c4c5ccccc5c(n41)=NC1=NC(=N3)c3ccccc31)c1ccccc12 [Pc 97, SiPc[OSi(CH3)2(CH2)3SCH3]2]
decomp (%) [1, 3]: 0% | decomp (%) [1, 4]: 41% | decomp (%) [1, 5]: 42% | decomp (%) [1, 6]: 43% | decomp (%) [1, 7]: 44%

CCCCCCCC[Si](CCCCCCCC)(CCCCCCCC)O[Si]1(O[Si](CCCCCCCC)(CCCCCCCC)CCCCCCCC)n2c3c4ccccc4c2N=C2N=C(N=c4c5ccccc5c(n41)=NC1=NC(=N3)c3ccccc31)c1ccccc12 [Pc 308, SiPc(OSiOct3)2]
decomp (%) ([2]; time 0 h): 0% | decomp (%) [2, 8]: 10% | decomp (%) [2, 9]: 15% | decomp (%) [2, 10]: 21% | decomp (%) [2, 11]: 26%

C=CCCCC[Si](C)(C)O[Si]1(O[Si](C)(C)CCCCC=C)n2c3c4ccccc4c2N=C2N=C(N=c4c5ccccc5c(n41)=NC1=NC(=N3)c3ccccc31)c1ccccc12 [Pc 270, SiPc[OSi(CH3)2(CH2)4CH═CH2]2]
decomp (%) [1, 3]: 0% | decomp (%) [1, 4]: 1% | decomp (%) [1, 5]: 2% | decomp (%) [1, 6]: 2% | decomp (%) [1, 7]: 3%

CCCCCC[Si](CCCCCC)(CCCCCC)O[Si]1(O)n2c3c4ccccc4c2N=C2N=C(N=c4c5ccccc5c(n41)=NC1=NC(=N3)c3ccccc31)c1ccccc12 (stereo not drawn) [Pc 252, SiPc(OSiHx3)(OH)]
decomp (%) ([2]; time 0 h): 0% | decomp (%) [2, 8]: 16% | decomp (%) [2, 9]: 26% | decomp (%) [2, 10]: 34% | decomp (%) [2, 11]: 42%

CCCCCC[Si](CCCCCC)(CCCCCC)[O][Al]1[n]2c3c4ccccc4c2N=c2c4ccccc4c([n]21)=NC1=NC(=NC2=NC(=N3)c3ccccc32)c2ccccc21 [Pc 286, AlPcOSiHx3]
decomp (%) ([2]; time 0 h): 0% | decomp (%) [2, 8]: 10% | decomp (%) [2, 9]: 17% | decomp (%) [2, 10]: 23% | decomp (%) [2, 11]: 29%

SiPc[OCH2CH═C(CH3)(CH2)2CH═C(CH3)2]2 [Pc 302]
stability in the dark ([1]; in the dark): stable in the dark | decomp (%) [1, 3]: 0% | decomp (%) [1, 4]: 19% | decomp (%) [1, 5]: 60% | decomp (%) [1, 6]: 74% | decomp (%) [1, 7]: 81%

SiPc[OC(O)(CH2)6(CH2CH═CH)3CH2CH3]z [Pc 297]
decomp (%) [1]: 0 3 5 6 9%

C[Si](C)(C)O[Si]1(O[Si](C)(C)C)n2c3c4ccccc4c2N=C2N=C(N=c4c5ccccc5c(n41)=NC1=NC(=N3)c3ccccc31)c1ccccc12 [Pc 280, SiPc(OSiMe3)2]
decomp (%) ([2]; time 0 h): 0% | decomp (%) [2, 8]: 11% | decomp (%) [2, 9]: 19% | decomp (%) [2, 10]: 27% | decomp (%) [2, 11]: 36%

CCCCCCCCCCCCCCCCCC(=O)O.CCCCCCCCCCCCCCCCCC(=O)O.CN(C)CCC[Si](C)(C)O[Si]1(O[Si](C)(C)CCCN(C)C)n2c3c4ccccc4c2N=C2N=C(N=c4c5ccccc5c(n41)=NC1=NC(=N3)c3ccccc31)c1ccccc12 [Pc 287, SiPc[OSi(CH3)2(CH2)3NH(CH3)2]2^2+[OC(O)(CH2)17CH3]2^−]
decomp (%) [1, 3]: 0% | decomp (%) [1, 4]: 19% | decomp (%) [1, 5]: 20% | decomp (%) [1, 6]: 21% | decomp (%) [1, 7]: 21%

CCCCCC[Si](CCCCCC)(CCCCCC)O[Si]1(O[Si](CCCCCC)(CCCCCC)CCCCCC)n2c3c4ccccc4c2N=C2N=C(N=c4c5ccccc5c(n41)=NC1=NC(=N3)c3ccccc31)c1ccccc12 [Pc 162, SiPc(OSiHx3)2]
decomp (%) ([2]; time 0 h): 0% | decomp (%) [2, 8]: 9% | decomp (%) [2, 9]: 14% | decomp (%) [2, 10]: 20% | decomp (%) [2, 11]: 26%

SiPc[OC(O)(CH2)16CH3]2 [Pc 294]
decomp (%) [1, 3]: 0% | decomp (%) [1, 4]: 1% | decomp (%) [1, 5]: 1% | decomp (%) [1, 6]: 1% | decomp (%) [1, 7]: 2%

CCC[Si](CCC)(CCC)[O][Al]1[n]2c3c4ccccc4c2N=C2N=C(N=c4c5ccccc5c([n]41)=NC1=NC(=N3)c3ccccc31)c1ccccc12 [Pc 285, AlPcOSiPr3]
decomp (%) ([2]; time 0 h): 0% | decomp (%) [2, 8]: 8% | decomp (%) [2, 9]: 16% | decomp (%) [2, 10]: 23% | decomp (%) [2, 11]: 30%

CN(C)CCC[Si](C)(C)O[Si]1(O[Si](C)(C)CCCN(C)C)n2c3c4ccccc4c2N=C2N=C(N=c4c5ccccc5c(n41)=NC1=NC(=N3)c3ccccc31)c1ccccc12 [Pc 12, SiPc[OSi(CH3)2(CH2)3N(CH3)2]2]
decomp (%) [1, 3]: 0% | decomp (%) [1, 4]: 19% and 18% | decomp (%) [1, 5]: 20% and 19% | decomp (%) [1, 6]: 21% | decomp (%) [1, 7]: 21%

SiPc[OC(O)(CH2)3(CH2CH═CH)3(CH2)4CH3]2 [Pc 298]
decomp (%) [1]: 0 12 21 27 33% | decomposition rate relative to bis(α-linolenoxy)silicon phthalocyanine [1]: approximately twice as fast
